Earlier results on 1 compound are cited in US9877937B2, “Compounds and methods for treating aberrant adrenocortical cell disorders” (Millendo Therapeutics, Inc., priority 2012, dated 2018).

For this data set, the system named is adrenocortical carcinoma (ACC). As to conditions: cited from earlier work.

Structures are written as SMILES.

`Clc1ccc(C(c2ccccc2Cl)C(Cl)Cl)cc1` (centres unmarked) [mitotane]: the “proportion of patients with increased progression-free survival” value (ACC patients) is on record as “one-quarter to one-third”. Under “accumulates in fat tissue”, the elimination half-life entry is “months”. For the same compound, where the note is “patients that derive a therapeutic benefit”, the “average delay of disease progression” value is “five”. For the same compound, where the note is “patients”, the “blood level required for therapeutic benefit” value was 14000 ng/mL and the toxic blood level is 20 mg/L.
